Experimental data reported in patent US8455522B2, “Benzoxazolone derivatives as aldosterone synthase inhibitors” (Novartis AG, priority 2009, dated 2013).

Experiments:
aldosterone synthase = target: T1, aldosterone synthase (Homo sapiens, UniProt P19099); assay: Aldosterone cell secretion in NCI-H295R cells (aldosterone synthase inhibition, SPA); type: cell-based; settings: human adrenocortical carcinoma NCI-H295R cells, 1 μM Ang II, 24 hr
T1 construct: host or cells: NCI-H295R
T1 sequence (P19099 25-503): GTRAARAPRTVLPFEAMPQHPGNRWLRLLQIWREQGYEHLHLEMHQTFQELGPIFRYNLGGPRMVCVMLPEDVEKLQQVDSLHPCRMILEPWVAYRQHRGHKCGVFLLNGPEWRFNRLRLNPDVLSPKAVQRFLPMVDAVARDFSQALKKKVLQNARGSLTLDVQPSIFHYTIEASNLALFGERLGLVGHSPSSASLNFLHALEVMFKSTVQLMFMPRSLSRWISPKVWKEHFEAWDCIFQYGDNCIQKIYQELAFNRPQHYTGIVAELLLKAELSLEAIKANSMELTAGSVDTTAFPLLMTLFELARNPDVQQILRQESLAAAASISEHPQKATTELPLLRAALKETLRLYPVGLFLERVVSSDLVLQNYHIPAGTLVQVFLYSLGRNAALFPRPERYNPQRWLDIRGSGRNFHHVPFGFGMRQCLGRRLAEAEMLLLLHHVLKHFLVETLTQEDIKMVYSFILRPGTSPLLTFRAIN
Excerpt: In particular, the aldosterone synthase inhibitory activities in vitro can be determined by the following assay.
Human adrenocortical carcinoma NCI-H295R cell line was obtained from American Type Culture Collection (Manassas, Va.). Insulin/transferrin/selenium (ITS)-A supplement (100×). DMEM/F-12, antibiotic/antimycotic (100×), and fetal bovine serum (FBS) were purchased from Invitrogen (Carlsbad, Calif.). Anti-mouse PVT scintillation proximity assay (SPA) beads and NBS 96-well plates were obtained from GE Health Sciences (Piscataway, N.J.) and Corning (Acton, Mass.), respectively. Solid black 96-well flat bottom plates were purchased from Costar (Corning, N.Y.). Aldosterone and angiotensin (Ang II) were purchased from Sigma (St. Louis, Mo.). D-[1,2,6,7-^3H(N)]aldosterone was acquired from PerkinElmer (Boston, Mass.). Nu-serum was a product of BD Biosciences (Franklin Lakes, N.J.). The NADPH regenerating system, dibenzylfluorescein (DBF), and human aromatase Supersomes® were obtained from Gentest (Woburn, Mass.).
For in vitro measurement of aldosterone activity, human adrenocortical carcinoma NCI-H295R cells are seeded in NBS 96-well plates at a density of 25,000 cells/well in 100 μl of a growth medium containing DMEM/F12 supplemented with 10% FCS, 2.5% Nu-serum, 1 μg ITS/ml, and 1× antibiotic/antimycotic. The medium is changed after culturing for 3 days at 37° C. under an atmosphere of 5% CO2/95% air. On the following day, cells are rinsed with 100 μl of phosphate-buffered saline (PBS) and incubated with 100 μl of treatment medium containing 1 μM Ang II and a compound at different concentrations in quadruplicate wells at 37° C. for 24 hr. At the end of incubation, 50 μl of medium is withdrawn from each well for measurement of aldosterone production by an SPA using mouse anti-aldosterone monoclonal antibodies.
Measurement of aldosterone activity can also be performed using a 96-well plate format. Each test sample is incubated with 0.02 μCi of D-[1,2,6,7-^3H(N)]aldosterone and 0.3 μg of anti-aldosterone antibody in PBS containing 0.1% Triton X-100, 0.1% bovine serum albumin, and 12% glycerol in a total volume of 200 μl at room temperature for 1 hr. Anti-mouse PVT SPA beads (50 μl) are then added to each well and incubated overnight at room temperature prior to counting in a Microbeta plate counter. The amount of aldosterone in each sample is calculated by comparing with a standard curve generated using known quantities of the hormone.
(§1) Inhibition of the release of certain steroids can be used as a measure of the respective enzyme inhibition by the added test compounds. The dose-dependent inhibition of enzymic activity by a compound is calculated by means of an inhibition plot which is characterized by an IC50.
The IC50 values for active test compounds are ascertained by a simple linear regression analysis in order to construct inhibition plots without data weighting. The inhibition plot is calculated by fitting a 4-parameter logistic function to the raw data points using the least squares method. The equation of the 4-parameter logistic function is calculated as follows: Y=(d−a)/((1+(x/c)b))+a, where: a=minimum data level, b=gradient, I […], d=maximum data level, x=inhibitor concentration.
The inhibition activity of aldosterone production can also be expressed in percentage inhibition (% inhibition) at a given concentration (e.g. % inhibition at 1 μM), which is the aldosterone level when the cell is treated with the given concentration of a compound of this invention (e.g. concentration of 1 μM) versus the aldosterone excretion when cell is free of the compound of the invention: % inhibition aldosterone production=[(Y−X)/Y]×100 wherein X is the level of aldosterone when the cell is treated with a compound of Formula I; and Y is the level of aldosterone when the cell is free of compound of Formula I.

CYP11B1 = target: T2, CYP11B1 (Homo sapiens, UniProt P15538); assay: Cortisol cell secretion in NCI-H295R cells (CYP11B1 activity); type: cell-based; settings: compound at 1 μM; for inhibition at 1 µM: NCI-H295R, read-out: Cortisol cell secretion (% Inhib. @ 1 μM)
T2 construct: the NCI-H295R cells have Cyp11 B1 (steroid 11 β-hydroxylase); host or cells: NCI-H295R
T2 sequence (P15538 25-503): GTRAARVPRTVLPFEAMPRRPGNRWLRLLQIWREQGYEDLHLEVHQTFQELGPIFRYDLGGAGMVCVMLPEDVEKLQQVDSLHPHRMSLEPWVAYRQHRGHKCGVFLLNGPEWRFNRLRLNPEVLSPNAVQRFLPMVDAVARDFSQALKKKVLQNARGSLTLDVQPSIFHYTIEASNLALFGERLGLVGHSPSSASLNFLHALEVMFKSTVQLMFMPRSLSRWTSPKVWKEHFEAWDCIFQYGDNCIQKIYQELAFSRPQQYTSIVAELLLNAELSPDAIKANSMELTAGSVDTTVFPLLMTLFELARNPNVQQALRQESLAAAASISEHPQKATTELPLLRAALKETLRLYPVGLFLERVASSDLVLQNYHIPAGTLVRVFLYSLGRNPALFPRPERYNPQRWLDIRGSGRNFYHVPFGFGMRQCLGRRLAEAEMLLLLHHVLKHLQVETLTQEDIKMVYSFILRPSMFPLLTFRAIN
Excerpt: The in vitro inhibitory activities for CYP1B1 can be determined by the following assay.
The cell line NCI-H295R was originally isolated from an adrenocortical carcinoma and has been characterized in the literature through the stimulable secretion of steroid hormones and the presence of the enzymes essential for steroidogenesis. Thus, the NCI-H295R cells have Cyp11 B1 (steroid 11 β-hydroxylase). The cells show the physiological property of zonally undifferentiated human foetal adrenocortical cells which, however, have the capacity to produce the steroid hormones which are formed in the three, phenotypically distinguishable zones in the adult adrenal cortex.
The NCI-H295R cells (American Type Culture Collection, ATCC, Rockville, Md., USA) are grown in Dulbeoco's Modified Eagle'Ham F-12 Medium (DME/F12), which has been supplemented with Ulroser SF Serum (Soprachem, Geigy-Saint-Christophe, France), insulin, transferrin, selenite (I-T-S, Becton Dickinson Biosiences, Franklin lakes. NJ, USA) and antibiotics in 75 cm^2 cell culture vessels at 37° C. and in a 95% air-5% carbon dioxide atmosphere. The cells are subsequently transferred for colony formation into a 24-well incubation vessel. They are cultivated there in DME/F12 medium, which is now supplemented with 0.1% bovine serum instead of Ultroser SF for 24 hours. The experiment is initiated by cultivating the cells in DME/F12 medium which is supplemented with 0.1% bovine serum albumin and test compound, in the presence or absence of cell stimulants, for 72 hours. The test substance is added in a concentration range from 0.2 nanomolar to […]. Cell stimulants which can be used are angiotensin II (1 D or 100 nanomolar), potassium ions (16 millimolar), forskolin (10 micromolar) or a combination of two stimulants.
The excretion of aldosterone, cortisol, corticosterone and estradiol/estrone into the culture medium can be detected and quantified by commercially available, specific monoclonal antibodies in radioimmunoassays in accordance with the manufacturer's instructions.
as §1
The inhibition activity of cortisol production (CYP11B1 activity) can also be expressed in percentage inhibition (% inhibition) at a given concentration (e.g. % inhibition at 1 μM), which is the cortisol level when cell is treated with the given concentration of a compound of the invention (e.g. concentration of 1 μM) versus the cortisol excretion when cell is free of the compound of the invention. % inhibition cortisol production=[(Y′−X′)/Y′]×100 wherein X′ is the level of cortisol when the cell is treated with a compound of Formula I; and Y′ is the level of cortisol when the cell is free of compound of Formula I.

Cn1c(=O)oc2ccc(-c3cncc(C(N)C(F)(F)F)c3)cc21 (single isomer, unassigned) [Example 29 Enantiomer 1, 5-(5-(1-amino-2,2,2-trifluoroethyl)pyridin-3-yl)-3-methylbenzo[d]oxazol-2(3H)-one]
IC50 (aldosterone synthase): 47 nM | inhibition at 1 µM (CYP11B1): 57%

Cn1c(=O)oc2ccc(-c3cncc(CCO)c3)cc21 [Example 18, 5-(5-(2-hydroxyethyl)pyridin-3-yl)-3-methylbenzo[d]oxazol-2(3H)-one]
IC50 (aldosterone synthase): 34 nM | inhibition at 1 µM (CYP11B1): 57%

Cn1c(=O)oc2ccc(-c3cncc(C(C)(C)O)c3)cc21 [Example 14, 5-(5-(2-hydroxypropan-2-yl)pyridin-3-yl)-3-methylbenzo[d]oxazol-2(3H)-one]
IC50 (aldosterone synthase): 3 nM | inhibition at 1 µM (CYP11B1): 89%

Cn1c(=O)oc2ccc(-c3cncc(C(O)C4CC4)c3)cc21 (single isomer, unassigned) [Example 13 Enantiomer 2, 5-(5-(cyclopropyl(hydroxy)methyl)pyridin-3-yl)-3-methylbenzo[d]oxazol-2(3H)-one]
IC50 (aldosterone synthase): 30 nM | Cortisol cell secretion (% Inhib. @ 1 μM) (CYP11B1): 64%

Cn1c(=O)oc2ccc(-c3cncc(C(N)C(F)(F)F)c3)cc21 (single isomer, unassigned) [Example 29 Enantiomer 2, 5-(5-(1-amino-2,2,2-trifluoroethyl)pyridin-3-yl)-3-methylbenzo[d]oxazol-2(3H)-one]
IC50 (aldosterone synthase): 34 nM | Cortisol cell secretion (% Inhib. @ 1 μM) (CYP11B1): 57%
